Data reported in patent US20060089395A1, “Nf-kb activation inhibitors” (priority 2002, published 2006).

System: NF-κ B
Assay: Inhibitory activity of NF-κ B activation, luciferase reporter assay in HepG2 under TNF-α stimulation
Assay type: cell-based, human
Conditions: HepG2, TNF-α (40 ng/ml), 4 hours; for Inhibitory Ratio of NF-κ B Activation(%) Drug Concentration 10 μg/mL / inhibition at 10 µg/mL: 10 μg/mL; for inhibition at 10 µg/mL: read-out: Inhibitory Ratio of NF-κ B Activation(%) Drug Concentration 10 μg/mL
Protocol: Using a transfection reagent(Effectene; QIAGEN), the human hepatoma cell strain HepG2 was transfected with a plasmid(pNF κ B-Luc Reporter Plasmid; […]) which is integrated with an oligonucleotide having five tandem copies of NF-κ B binding sequences([…]) on a upstream region of firefly luciferase gene(Luc) according to the QIAGEN's protocol, and the cells were incubated for 6 to 24 hours. After the addition of TNF-α (40 ng/ml) in the presence or absence of a test compound, the cells were incubated for 4 hours, and intracellular luciferase activity was measured by using PicaGene LT (TOYO INK MFG Co., Ltd.) and a chemical luminescence measurement apparatus ([…]luor Plus; TECAN). The inhibitory ratio was measured as a ratio relative to the value of a luciferase activity in the absence of the test compound.

Row | Compound | Inhibitory Ratio of NF-κ B Activation(%) Drug Concentration 1 μg/mL (1 μg/mL) | Inhibitory Ratio of NF-κ B Activation(%) Drug Concentration 10 μg/mL | inhibition at 1 µg/mL (Homo sapiens, 1 μg/mL, read-out: Inhibitory Ratio of NF-κ B Activation(%) Drug Concentration 1 μg/mL) | inhibition at 10 µg/mL (Homo sapiens)
1 | O=C(Nc1cc(C(F)(F)F)ccc1OCC(F)(F)F)c1cc(Cl)ccc1O [Compound No. 113] | 90.5% | 96.2% | – | –
2 | COc1ccccc1Oc1ccc(C(F)(F)F)cc1NC(=O)c1cc(Cl)ccc1O [Compound No. 114] | 91.8% | 98.2% | – | –
3 | Cc1cc(Oc2ccc(C(F)(F)F)cc2NC(=O)c2cc(Cl)ccc2O)cc(C)c1Cl [Compound No. 115] | 90.7% | 98.4% | – | –
4 | O=C(Nc1cc(C(F)(F)F)ccc1N1CCCCC1)c1cc(Cl)ccc1O [Compound No. 116] | 90.0% | 97.3% | – | –
5 | Cc1ccc(Oc2ccc(C(F)(F)F)cc2NC(=O)c2cc(Cl)ccc2O)cc1 [Compound No. 117] | 92.8% | 92.6% | – | –
6 | O=C(Nc1cc(C(F)(F)F)ccc1Oc1ccc(Cl)cc1)c1cc(Cl)ccc1O [Compound No. 118] | 95.0% | 99.5% | – | –
7 | O=C(Nc1cc(C(F)(F)F)ccc1Cl)c1cc(Cl)cnc1O [Compound No. 119] | 85.4% | 86.9% | – | –
8 | CC(=O)Oc1ccccc1C(=O)Nc1cc(Cl)cc(Cl)c1 [Compound No. 121] | 92.9% | 95.5% | – | –
9 | O=C(Nc1cc(Cl)ccc1Cl)c1cc(Cl)ccc1O [Compound No. 122] | 95.1% | 96.9% | – | –
10 | O=C(Nc1cc(F)cc(F)c1)c1cc(Br)ccc1O [Compound No. 123] | 91.8% | 96.8% | – | –
11 | O=C(Nc1cc(Cl)cc(Cl)c1)c1cc(F)ccc1O [Compound No. 124] | 94.2% | 97.0% | – | –
12 | O=C(Nc1cc(Cl)cc(Cl)c1)c1cc(Br)ccc1O [Compound No. 126] | 77.1% | 92.8% | – | –
13 | O=C(Nc1cc(Cl)cc(Cl)c1)c1cc(I)ccc1O [Compound No. 127] | 85.4% | 97.1% | – | –
14 | O=C(Nc1cc(Cl)cc(Cl)c1)c1cc(Br)cc(Br)c1O [Compound No. 128] | 91.4% | 95.1% | – | –
15 | O=C(Nc1cc(Cl)cc(Cl)c1)c1ccc(Cl)cc1O [Compound No. 129] | – | 71.8% | – | –
16 | O=C(Nc1cc(Cl)cc(Cl)c1)c1cc([N+](=O)[O-])ccc1O [Compound No. 130] | – | 70.6% | – | –
17 | Cc1ccc(O)c(C(=O)Nc2cc(Cl)cc(Cl)c2)c1 [Compound No. 131] | 49.1% | 88.7% | – | –
18 | O=C(Nc1cc([N+](=O)[O-])cc([N+](=O)[O-])c1)c1cc(Br)ccc1O [Compound No. 133] | 91.0% | 95.6% | – | –
19 | CC(C)(C)c1ccc(C(C)(C)C)c(NC(=O)c2cc(Cl)ccc2O)c1 [Compound No. 134] | 89.1% | 96.3% | – | –
20 | COc1ccc(C(C)(C)C)cc1NC(=O)c1cc(Cl)ccc1OC(C)=O [Compound No. 136] | 91.0% | 99.4% | – | –
21 | Cc1cc(C)cc(NC(=O)c2cc(Br)ccc2O)c1 [Compound No. 137] | 86.3% | 92.6% | – | –

Row | Compound | Inhibitory Ratio of NF-κ B Activation(%) Drug Concentration 1 μg/mL (1 μg/mL) | Inhibitory Ratio of NF-κ B Activation(%) Drug Concentration 10 μg/mL | inhibition at 1 µg/mL (Homo sapiens, 1 μg/mL, read-out: Inhibitory Ratio of NF-κ B Activation(%) Drug Concentration 1 μg/mL) | inhibition at 10 µg/mL (Homo sapiens)
22 | CC(C)(C)c1cc(NC(=O)c2cc(Cl)ccc2O)cc(C(C)(C)C)c1 [Compound No. 138, N-{3,5-bis[(1,1-dimethyl)ethyl]phenyl}-5-chloro-2-hydroxybenzamide] | – | – | 89.6% | 98.1%
23 | CC(=O)Oc1ccc(Cl)cc1C(=O)Nc1cc(C(C)(C)C)cc(C(C)(C)C)c1 [Compound No. 139] | 90.8% | 94.7% | – | –
24 | COc1ccc(-c2ccccc2)cc1NC(=O)c1cc(Cl)ccc1O [Compound No. 141] | 82.4% | 97.9% | – | –
25 | COc1ccc(OC)c(NC(=O)c2cc(Br)ccc2O)c1 [Compound No. 142] | 32.4% | 95.7% | – | –
26 | COc1cc(NC(=O)c2cc(Br)ccc2O)cc(OC)c1 [Compound No. 143] | 38.3% | 96.8% | – | –
27 | COC(=O)c1cc(NC(=O)c2cc(Br)ccc2O)cc(C(=O)OC)c1 [Compound No. 144, 5-bromo-2-hydroxy-N-[3,5-bis(methoxycarbonyl)phenyl]benzamide] | – | – | – | 56.4%
28 | CC(C)(C)c1cc(NC(=O)c2cc([N+](=O)[O-])ccc2O)cc(C(C)(C)C)c1 [Compound No. 146] | 91.2% | 98.5% | – | –
29 | Cc1ccc(O)c(C(=O)Nc2cc(C(C)(C)C)cc(C(C)(C)C)c2)c1 [Compound No. 147] | 38.9% | 91.0% | – | –
30 | COc1ccc(C(C)(C)C)cc1NC(=O)c1cc(C)ccc1O [Compound No. 149] | 37.4% | 87.1% | – | –
31 | Cc1ccc(C(C)C)cc1NC(=O)c1cc(Cl)ccc1O [Compound No. 151] | 85.8% | 98.2% | – | –
32 | CCOc1ccc(OCC)c(NC(=O)c2cc(Cl)ccc2O)c1 [Compound No. 152] | 35.1% | 95.3% | – | –
33 | Cc1ccc(C)c(NC(=O)c2cc(Cl)ccc2O)c1 [Compound No. 153] | 88.3% | 97.1% | – | –
34 | N#Cc1ccc(Cl)cc1NC(=O)c1cc(Cl)ccc1O [Compound No. 154] | 83.0% | 93.3% | – | –
35 | CCN(CC)S(=O)(=O)c1ccc(OC)c(NC(=O)c2cc(Cl)ccc2O)c1 [Compound No. 155] | 11.2% | 90.2% | – | –
36 | O=C(Nc1cc([N+](=O)[O-])ccc1Cl)c1cc(Cl)ccc1O [Compound No. 156] | 93.8% | 95.7% | – | –
37 | O=C(Nc1ccccc1)c1ccc(Cl)c(NC(=O)c2cc(Cl)ccc2O)c1 [Compound No. 157] | 52.6% | 98.8% | – | –
38 | COc1ccc(OC)c(NC(=O)c2cc(Cl)ccc2O)c1 [Compound No. 158] | 52.4% | 96.8% | – | –
39 | COc1ccc(C)c(NC(=O)c2cc(Cl)ccc2O)c1 [Compound No. 160] | 69.6% | 96.5% | – | –
40 | CCCCOc1ccc(OCCCC)c(NC(=O)c2cc(Cl)ccc2O)c1 [Compound No. 161] | 94.2% | 97.6% | – | –
41 | CC(C)CCOc1ccc(OCCC(C)C)c(NC(=O)c2cc(Cl)ccc2O)c1 [Compound No. 162] | 93.8% | 97.9% | – | –
